“Also recorded” adds a separate entry of the source. Read-outs that look alike come from different tables or passages of the source. One block for each molecule: values may come before it.
Tests used:
myopia-induced mouse [1] = experiment: Eyedrop administration of UPR inhibitors during myopia induction in mouse: axial elongation and refraction (Test Example 2); type: in vivo; settings: eyedrop once a day for 10 days during myopia induction; 100 μM each (STF 60 μM); -30 D lens eye
Method: Specifically, a myopia-induced mouse is produced as follows.
During the myopia induction, 60 μM STF080312 (STF), 100 μM 4μ8C (4μ8C), 100 μM GSK2656157 (GSK), 100 μM GSK2606414 (GSK2606414), 100 μM Nelfinavir Mesylate hydrate (NFV), or 100μM Ceapin-A7 (Ceapin) was eye-dropped to both eyes once a day every day in the evening for 10 days.
It is said that increase of expression of URP gene pathway is a cause of pathologic axial elongation and scleral thinning in high myopia (Patent Literature 1). Therefore, in this Test Example 2, it was evaluated, in the sclera of a myopia-induced mouse in which scleral thinning had been caused, how the phenotype of axial elongation was affected by a known URP gene inhibitor. It is noted that GSK2656157 (GSK) and GSK2606414 were used as the PERK inhibitor, Nelfinavir Mesylate hydrate (NFV) and Ceapin-A7 were used as the ATF6 inhibitor, and STF080312 (STF) and 4μ8C were used as the IRE1 inhibitor (FIG. 4).
In accordance with the test method described above, the axial elongation caused in using each of the various gene inhibitors in a myopia-induced mouse was evaluated (FIG. 4).
FIGS. 5a and 5b illustrate axial elongation (a) and refraction change (b) obtained after eyedrop administration of 60 μM STF, 100 μM GSK, or 100 μM NFV once a day for 10 days during the myopia induction period of the mouse. Besides, FIGS. 5c and 5d illustrate axial elongation (a) and refraction change (b) obtained after similarly eyedrop administration of a combination of these inhibitors (STF+GSK:S+G, GSK+NFV:G+N, NFV+STF:N+S, or STF+GSK+NTF:S+G+N). Besides, FIG. 6 illustrates axial elongation (a) and refraction change (b) obtained after similarly eyedrop administration of 100 μM GSK2606414, Ceapin-A7, or 4μ8C.

myopia-induced mouse [2] = experiment: Intraperitoneal injection of 4-PBA or TUDCA during myopia induction in mouse: axial elongation and refraction (Test Example 3)
Method: Specifically, a myopia-induced mouse is produced as follows. It is noted that myopia induction, and measurement of an axial length and refraction were performed by methods similar to those described in Non Patent Literatures 6 and 7. First, a male C57BL6J mouse was put in a standard transparent cage under a 12/12 h light/dark cycle in a temperature controlled clean room. The animal was allowed to free access to standard feed and autoclaved tap water. A 3-week-old mouse immediately after weaning was anesthetized with a mixed anesthetic of three anesthetics, that is, Domitor (Nippon Zenyaku Kogyo Co., Ltd.), Butorphanol (Meiji Seika Pharma Co., Ltd.), and Midazolam (Sandoz K. K.), and the skull was exposed with scissors. As illustrated in FIG. 1(b), a post was provided to stand on the skull, and fixed with dental cements (Super-Bond, Sun Medical Company, Ltd.). The post was provided with a screw thread so that an adjustor described below could be fixed thereon with a nut.
For inducing myopia, a minus lens having a power of −30 diopters (D) (Rainbow Contact, RAINBOW OPTICAL LABORATORY CO., LTD.) was worn on the right eye (myopia-induced eye), and a lens having a power of 0 D or only a frame was worn as a control on the left eye (control eye). […] The protector used here was attached to be integral with the frame portion, but the protector needs not be integral with the lens as long as the lens is not damaged by the behavior of the mouse.
Sodium phenylbutyrate (Cayman Chemical, MI, USA) and tauroursodeoxycholic acid (Sigma Aldrich, Tokyo, Japan) were dissolved in PBS. STF080310 (Selleck Biotech, Tokyo, Japan) or 4μ8C (Selleck Biotech) of an IRE1 inhibitor, GSK2656157 (Selleck Biotech) or GSK2606414 (Selleck Biotech) of a PERK inhibitor, and Nelfinavir Mesylate hydrate (Tokyo Chemical Industry Co., Ltd.) or Ceapin-A7 (Sigma Aldrich) of an ATF6 inhibitor were dissolved in DMSO, and the resultant was diluted to 1:1000 with PBS to be used in an eyedrop test.
(§1) A solution of sodium phenylbutyrate in PBS (4-PBA; 200 mg/kg) or tauroursodeoxycholic acid (TUDCA; 100 mg/kg) was intraperitoneally injected (i.p.) every day during the myopia induction period.

[3] = system: myopia-induced juvenile mouse; settings: -30 D lens wearing group
Method: It was examined whether or not a difference in the dosage form of 4-PBA affects the change in the lens. In accordance with the description given above in “Experimental Method”, 4-PBA was eye-dropped or intraperitoneally administered to a myopia-induced juvenile mouse, and the thickness of the lens was measured with SD-OCT in the same manner as in the measurement of the axial length.

scleral collagen fibers = system: scleral collagen fibers
Method: After experimental intervention and eye parameter measurement, the eyeball was excised from the C57BL6J mouse. For transmission electron microscopic observation, the eyeball of the mouse was fixed in ice-cooled 2.5% glutaraldehyde in PBS for 1 hour, and then was cut along the sagittal plane. The cornea and the lens were excised, and the remaining tissue was further fixed in 2.5% glutaraldehyde/60 mM HEPES buffer (pH 7.4) overnight. The resultant specimen was washed with 60 mM HEPES buffer, and was then incubated in 1% tetroxide osmium/60 mM HEPES buffer at 4° C. for 2 hours, and the resultant was dehydrated through ethanol series, exchanged and embedded in Epon 812 (EM Japan, Tokyo, Japan). After the embedding, the resultant block was sliced into 70 nm, and stained with uranyl acetate and lead citrate. The resultant section was visualized with JEM-1400Plus (JEOL LTD., Tokyo, Japan).
The sclera is a tissue mainly containing collagen, and it is said that collagen fiber narrowing is involved in scleral thinning (see Non Patent Literature 5).

collagen 1A1 (COL1A1) = settings: 2% 4-PBA eyedrop
Method: A protein (10 μg/well) of the sclera was separated by SDS-PAGE, transferred onto a PVDF membrane (Merck Millipore, MA, USA), blocked with Blocking One (Nacalai Tesque, Tokyo), and incubated together with anti-ATF6 (BioAcademia), phosphorylation-IRE1 (Ser724, Abcam, Cambridge, UL), IRE1, phosphorylation-eIF2α, eIF2α, and β-actin (Cell Signaling Technologies Japan, Tokyo, Japan) antibodies at 4° C. overnight. The resultant membrane was incubated with an appropriate HRP-bound secondary antibody, and the resultant was visualized with EzWestLumi plus (ATTA, Tokyo, Japan). SDS-PAGE was performed in a 10% acrylamide gel with a protein size marker (Magic Mark XP Western Protein Standard, ThermoFisher Scientific). The concentration measurement and analysis was performed using Image J software.
(§2) Quantitative real-time PCR was performed using StepOnePlus Realtime PCR system with PowerUp SYBR Green Master Mix (Applied Biosystems, CA, USA). Expression level was standardized using B-actin.
4-PBA was administered by eyedrop to a mouse myopia induction model to confirm its influence on collagen 1A1 (COL1A1) and the like corresponding to principal collagens for maintaining the shape of the eyeball. A specific test method was as follows.
PBS (Veh) or 2% 4-PBA was eye-dropped to a myopia-induced mouse, and collagen 1A1 in the sclera (n=7) was evaluated by Western blotting method, and expression of collagen-related mRNA was evaluated by quantitative PCR.

[4] = for 4-PBA Concentration, Choroid / 4-PBA Concentration, Plasma / 4-PBA Concentration, Retina (right) / 4-PBA Concentration, Sclera: 200 mg/kg intraperitoneally for 1 week
Method: Pharmacokinetics in the eye tissue obtained by systemic administration of 4-PBA was confirmed. A specific test method was as follows.
4-PBA (200 mg/kg) was intraperitoneally administered for 1 week. One hour after the last administration, the eyeball was excised, and respective tissues were separated. Tissues from 16 mice (32eyeballs) were pooled to be used as 1 sample, and frozen with liquid nitrogen to be stored until measurement. Before the measurement by LC-MS/MS, a 9-fold weight of methanol/water (1:1, v/v) was added thereto for homogenization, and the resultant was centrifuged (10000×g, 4°° C., 5 minutes) to use a supernatant in analysis.
As a standard reagent, 4-phenylbutyric acid (Tokyo Chemical Industry Co., Ltd.) was used, and LC-MS/MS (LC-20AD system: Shimadzu Corporation, API4000: SCIEX, Tokyo, Japan), and HPLC column, Atlantis dc18 (5 μm, 2.1 mm ID×150 mm, Waters) were used. As a mobile phase, formic acid/water (1:10000, v/v) and acetonitrile were used, and during the analysis, the gradient of each mobile phase was maintained at 50%. A sample injection amount was set to 10 μL, a column temperature was set to 50° C., and a flow rate was set to 0.2 mL/min.
As mass spectrometry (MS) conditions, negative mode electrospray ionization (ESI) was employed, and ion was measured by multiple reaction monitoring (MRM).

myopia-induced mouse [5] = settings: 2% 4-PBA eye-dropped every day after myopia induction
Method: A solution of 2% sodium phenylbutyrate in PBS (4-PBA) was eye-dropped to both eyes of a myopia induced mouse once a day every day in the evening for 10 days after completing the myopia induction period corresponding to human adulthood. It is noted that administration schedule during the myopia induction period (LIM) and after completing the period is schematically illustrated in FIG. 11.
It was evaluated whether or not axial elongation is inhibited by eyedrop administration of 4-PBA after the myopia induction period (6 weeks old to 8 weeks old), namely, in a period, corresponding to adulthood in a human, when a posterior segment eye disorder is caused by scleral thinning (FIG. 11) differently from the eyedrop administration in the myopia induction period (3 weeks old to 6 weeks old) in a mouse model simulating myopia progression in childhood as described in Patent Literature 1.

[6] = system: PERK pathway and ATF6 pathway
Method: as §1, §2

[7] = TUDCA 100 mg/kg intraperitoneal injection during myopia induction
[8] = 4-PBA 200 mg/kg/day intraperitoneal injection, 1st week and 3rd week of myopia induction (LIM)

Molecule: O=C(Nc1cnn(Cc2ccc(C(F)(F)F)cc2C(F)(F)F)c1)c1cc(-c2ccco2)on1 [Ceapin-A7]
axial elongation of myopia-induced eye (myopia-induced mouse [1]): neither axial elongation nor myopic refraction was inhibited
myopic refraction of myopia-induced eye (myopia-induced mouse [1]): neither axial elongation nor myopic refraction was inhibited

Molecule: Cn1cc(-c2ccc3c(c2)CCN3C(=O)Cc2cccc(C(F)(F)F)c2)c2c(N)ncnc21 [GSK2606414]
axial elongation of myopia-induced eye (myopia-induced mouse [1]): neither axial elongation nor myopic refraction was inhibited
myopic refraction of myopia-induced eye (myopia-induced mouse [1]): neither axial elongation nor myopic refraction was inhibited

Molecule: C[C@H](CCC(=O)NCCS(=O)(=O)O)[C@H]1CC[C@H]2[C@@H]3[C@@H](O)C[C@@H]4C[C@H](O)CC[C@]4(C)[C@H]3CC[C@]12C [TUDCA, tauroursodeoxycholic acid]
axial elongation (pathologic, myopia-induced eye) (myopia-induced mouse [2]; [7]): pathologic axial elongation alone was inhibited; also recorded: the axial elongation is inhibited
myopic refraction (myopia-induced mouse [2]; [7]): the myopic refraction is inhibited
physiological axial elongation (myopia-induced mouse [2]; mouse, in vivo): physiological axial elongation was not inhibited

4-PBA Concentration, Choroid ([4]; 15 min after administration): 348 ng/g or ng/mL
4-PBA Concentration, Plasma ([4]; 15 min after administration): 394 ng/g or ng/mL
4-PBA Concentration, Retina (right) ([4]; 15 min after administration): 349 ng/g or ng/mL
4-PBA Concentration, Sclera ([4]; 15 min after administration): 203 ng/g or ng/mL
4-PBA Concentration, Choroid ([4]; 30 min after administration): 117 ng/g or ng/mL
4-PBA Concentration, Plasma ([4]; 30 min after administration): 186 ng/g or ng/mL
4-PBA Concentration, Retina (right) ([4]; 30 min after administration): 88.2 ng/g or ng/mL
4-PBA Concentration, Sclera ([4]; 30 min after administration): 107 ng/g or ng/mL
4-PBA Concentration, Choroid ([4]; 60 min after administration): 76.7 ng/g or ng/mL
4-PBA Concentration, Plasma ([4]; 60 min after administration): 76.2 ng/g or ng/mL
4-PBA Concentration, Retina (right) ([4]; 60 min after administration): 27.9 ng/g or ng/mL
4-PBA Concentration, Sclera ([4]; 60 min after administration): 44.9 ng/g or ng/mL
detection of 4-PBA in the retina, the choroid and the sclera ([4]; intraperitoneally administered): detected
Molecule: sodium phenylbutyrate [4-PBA]
lens thickening through myopia induction (LIM) ([3]; 4-PBA administered by eyedrop): lens thickening was not caused
lens thickening through myopia induction (LIM) ([3]; intraperitoneal administration of 4-PBA): did not affect lens thickening
narrowing of collagen fibers in the sclera (scleral collagen fibers; 4-PBA administered every day over the myopia-induced period, TEM, FIG. 10a): the narrowing of collagen fibers in the sclera was inhibited
scleral collagen fiber cross-sectional area profile (scleral collagen fibers; eyedrop administration of 2% 4-PBA, FIG. 10b): the area profile was restored to the original one
collagen 1A1 (COL1A1) protein in the sclera (reduction induced by myopia) (collagen 1A1 (COL1A1); Western blotting): can be cancelled
collagen 1A1 (COL1A1) mRNA in the sclera (reduction induced by myopia) (collagen 1A1 (COL1A1); quantitative PCR): can be cancelled
mRNAs of Col4a3, Col8a2, Col11a2, and Col15a1 in the sclera (increase by myopia induction) (collagen 1A1 (COL1A1); quantitative PCR): the increase was cancelled
axial elongation (myopia-induced mouse [2]; [8]): the axial elongation is inhibited
myopic refraction (myopia-induced mouse [2]; [8]): the myopic refraction is inhibited
myopic refraction after completing the myopia induction (myopia-induced mouse [5]): tended to be inhibited
adulthood axial elongation after completing the myopia induction (myopia-induced mouse [5]; 1st and 3rd weeks): tended to inhibit
UPR gene expression in the sclera (increase in myopia induced eyes) ([6]; 4-PBA 200 mg/kg/day administered, quantitative PCR): the increase is inhibited by 4-PBA
expression of genes disposed downstream of the PERK pathway and the ATF6 pathway ([6]; eyedrop administration of 2% 4-PBA, FIG. 7): significantly inhibited

Molecule: Cc1cc(=O)oc2c(C=O)c(O)ccc12 [4μ8C]
axial elongation of myopia-induced eye (myopia-induced mouse [1]): neither axial elongation nor myopic refraction was inhibited
myopic refraction of myopia-induced eye (myopia-induced mouse [1]): neither axial elongation nor myopic refraction was inhibited

— patent publication US20240398736A1, “Eyedrops for Treating Scleral Thinning and Screening Method for Therapeutic Agent of Scleral Thinning” (Tsubota Laboratory, Inc., priority 2020, published 2024)
